# In publication PMC10331583, “Control of fibrosis with enhanced safety via asymmetric inhibition of prolyl‐tRNA synthetase 1” (EMBO Molecular Medicine, 2023):
# “And” between values parts separate entries of the source, which are not always exact repeats. Equal values may be shown once.
# Experiments:
# phosphorylation of SMAD2 = assay: Phosphorylation of SMAD2 (TGF‐β pathway), immunoblot; assay type: cell-based, human; settings: TGF‐β 2 ng/ml, 15 h
# Description: The levels of proteins were determined by immunoblot assay. […] The lowest concentration at which protein levels started to decrease was normalized by IC50 values for collagen level and used as the y‐axis value. […] The slope and R^2 value were calculated using GraphPad Prism 7.0. […] The activation of the TGF‐β pathway was determined by monitoring the phosphorylation of SMAD2. Immunoblot images are representative of three biologically independent experiments. • The band intensities of the immunoblot images in (C) were quantified using ImageJ (n = 3; One‐way ANOVA; *P < 0.05, **P < 0.01, ***P < 0.001; mean ± SEM). Source data are available online for this figure.
# C57BL/6 mice = assay: Bleomycin‐induced lung fibrosis, therapeutic model 2 (compounds from 2 weeks after bleomycin); assay type: in vivo; settings: model 2, drug administration from day 14
# Description: To examine therapeutic efficacy of DWN12088, all experiments were conducted following the international guidelines on the ethical use of experimental animals and approved by the Institutional Animal Care and Use Committee of Daewoong Pharmaceutical (IACUC‐21‐014). C57BL/6 mice (7–8‐week‐old, male, obtained from Orient Bio) were anesthetized with Zoletil and injected intratracheally with 100 μl bleomycin (2 units/kg) (Merck, B8416) to induce lung fibrosis. A group of disease‐free mice (“untreated”) were injected with PBS instead of bleomycin. After a week, mice treated with bleomycin were randomized to (i) vehicle (saline), (ii) HF 0.05 mg/kg, (iii) HF 0.1 mg/kg, and (iv) DWN12088 10 mg/kg groups (n = 5 for each group) according to their body weight. The drugs were orally administered once daily for 2 weeks, and then the outcome was analyzed. For the experiments testing the effect of the compounds 2 weeks after bleomycin challenge, the experiment was approved by IACUC of Daewoong Pharmaceutical (IACUC‐22‐009). […]
# The collagen contents of lung tissues were measured using Sircol™ soluble collagen assay (Biocolor Ltd., S1000) following the manufacturer's instructions. […] Tissue extracts were incubated with Sirius red dye, and the absorbance was determined at 540 nm using a spectrophotometer. […]
# in vitro = settings: human, Cytotoxicity
# [1] = tested on: WI‐26 VA4 cells stably expressing PARS1 FA/EA/RL mutant; assay: Collagen ELISA in cells stably expressing PARS1 mutant; settings: for Collagen level, average: average of 4 experiments; for Collagen level, single replicates: replicates of Experiments #1-#4
# [2] = biological target: T1, PARS1 F1097A/E1123A/R1152L (FA/EA/RL) mutant (Homo sapiens, UniProt P07814, E1123A/F1097A/R1152L); assay: Microscale thermophoresis (MST), PARS1 mutant; assay type: binding; settings: for Fraction bound: single replicates
# T1 construct: His‐PARS1 (1001–1,512 aa); made in house; host or cells: Escherichia coli
# T1 sequence (P07814 1001-1512 F1097A/E1123A/R1152L): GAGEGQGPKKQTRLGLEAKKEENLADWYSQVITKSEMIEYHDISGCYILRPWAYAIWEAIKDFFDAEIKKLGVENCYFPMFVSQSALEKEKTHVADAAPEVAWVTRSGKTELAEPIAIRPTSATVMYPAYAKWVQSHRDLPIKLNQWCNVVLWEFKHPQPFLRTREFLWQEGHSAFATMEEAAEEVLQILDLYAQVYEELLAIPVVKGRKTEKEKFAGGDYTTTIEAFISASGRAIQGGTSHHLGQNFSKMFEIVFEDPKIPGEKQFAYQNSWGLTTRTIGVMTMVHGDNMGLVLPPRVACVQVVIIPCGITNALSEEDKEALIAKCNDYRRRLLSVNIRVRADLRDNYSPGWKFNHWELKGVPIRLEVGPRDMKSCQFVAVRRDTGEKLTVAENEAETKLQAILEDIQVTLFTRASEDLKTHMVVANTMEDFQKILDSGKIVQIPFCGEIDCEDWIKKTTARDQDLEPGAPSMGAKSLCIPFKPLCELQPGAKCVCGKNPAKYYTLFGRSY
# [3] = % of control (single replicates, Experiment #1-#4)
# [4] = WI-26 VA4 Flag-PARS1 FA/EA/RL, 0.3 nM
# [5] = WI-26 VA4 Flag-PARS1 FA/EA/RL, 1 nM
# [6] = WI-26 VA4 Flag-PARS1 FA/EA/RL, 3 nM
# [7] = WI-26 VA4 Flag-PARS1 FA/EA/RL, 10 nM
# [8] = WI-26 VA4 Flag-PARS1 FA/EA/RL, 30 nM
# [9] = WI-26 VA4 Flag-PARS1 FA/EA/RL, 100 nM
# [10] = WI-26 VA4 Flag-PARS1 FA/EA/RL, 300 nM
# [11] = WI-26 VA4 Flag-PARS1 FA/EA/RL, 1000 nM
compound,measurement,setting,value
"O=C(CC1NCCCC1O)Cn1cnc2cc(Br)c(Cl)cc2c1=O (centres unmarked) [HF, Halofuginone, reference compound]",SMAD2 phosphorylation,phosphorylation of SMAD2,reduced SMAD2 phosphorylation
same,fibrotic properties,C57BL/6 mice,less apparent
same,"activity at 72 h, 0.001 µM",in vitro; [3],107%
same,"activity at 72 h, 0.01 µM",in vitro; [3],96.3%
same,"activity at 72 h, 0.03 µM",in vitro; [3],71.4%
same,"activity at 72 h, 0.3 µM",in vitro; [3],34.8%
same,"activity at 72 h, 0.001 µM","in vitro; % of control, average",106%
same,"activity at 72 h, 0.003 µM","in vitro; % of control, average",109%
same,"activity at 72 h, 0.03 µM","in vitro; % of control, average",76.1%
same,"activity at 72 h, 0.1 µM","in vitro; % of control, average",41.8%
same,"activity at 72 h, 1 µM","in vitro; % of control, average",20%
same,IC50,"[1]; Homo sapiens, WI26VA4, read-out: IC50, collagen level",15.4 nM
same,"Collagen level, average",[1]; [4],101.54 % of control
same,"Collagen level, single replicates",[1]; [4],102.13 % of control and 120.79 % of control and 96.95 % of control and 94.78 % of control and 97.01 % of control and 91.61 % of control and 85.22 % of control and 99.08 % of control and 88.51 % of control and 103.40 % of control and 115.28 % of control and 123.69 % of control
same,"Collagen level, average",[1]; [5],101.93 % of control
same,"Collagen level, single replicates",[1]; [5],100.26 % of control and 124.52 % of control and 104.32 % of control and 114.35 % of control and 95.53 % of control and 102.09 % of control and 95.23 % of control and 96.53 % of control and 98.60 % of control and 104.60 % of control and 92.58 % of control and 94.60 % of control
same,"Collagen level, average",[1]; [6],97.24 % of control
same,"Collagen level, single replicates",[1]; [6],74.39 % of control and 119.08 % of control and 111.81 % of control and 77.98 % of control and 96.46 % of control and 94.83 % of control and 78.75 % of control and 99.39 % of control and 89.90 % of control and 103.30 % of control and 102.16 % of control and 118.87 % of control
same,"Collagen level, average",[1]; [7],70.83 % of control
same,"Collagen level, single replicates",[1]; [7],64.31 % of control and 91.60 % of control and 60.26 % of control and 74.23 % of control and 77.87 % of control and 69.39 % of control and 82.84 % of control and 75.26 % of control and 63.48 % of control and 78.01 % of control and 54.94 % of control and 57.79 % of control
same,"Collagen level, average",[1]; [8],26.11 % of control
same,"Collagen level, single replicates",[1]; [8],25.57 % of control and 24.68 % of control and 22.36 % of control and 32.03 % of control and 25.38 % of control and 25.85 % of control and 26.88 % of control and 24.32 % of control and 26.43 % of control and 20.94 % of control and 29.04 % of control and 29.85 % of control
same,"Collagen level, average",[1]; [9],4.47 % of control
same,"Collagen level, single replicates",[1]; [9],4.44 % of control and 3.82 % of control and 4.24 % of control and 4.79 % of control and 5.13 % of control and 4.94 % of control and 4.02 % of control and 4.80 % of control and 4.41 % of control and 3.44 % of control and 4.93 % of control and 4.63 % of control
same,"Collagen level, average",[1]; [10],3.35 % of control
same,"Collagen level, single replicates",[1]; [10],2.94 % of control and 2.13 % of control and 2.73 % of control and 2.78 % of control and 5.38 % of control and 5.19 % of control and 3.51 % of control and 3.53 % of control and 4.16 % of control and 2.06 % of control and 3.52 % of control and 2.22 % of control
same,"Collagen level, average",[1]; [11],4.10 % of control
same,"Collagen level, single replicates",[1]; [11],4.74 % of control and 3.22 % of control and 4.71 % of control and 3.16 % of control and 4.63 % of control and 4.53 % of control (2×) and 4.37 % of control and 4.67 % of control and 2.44 % of control and 4.55 % of control and 3.67 % of control
same,"HillSlope, collagen level","[1]; WI-26 VA4 Flag-PARS1 FA/EA/RL, four-parameter fit",-1.829
same,"LogIC50, collagen level","[1]; WI-26 VA4 Flag-PARS1 FA/EA/RL, log of concentration in nM, four-parameter fit",1.188
same,"Fraction bound, average",[2]; Dose 3.0518 nM,-0.2588
same,Fraction bound,[2]; Dose 3.0518 nM,-0.0691 and -0.4485
same,"Fraction bound, average",[2]; Dose 6.1035 nM,0.0816
same,Fraction bound,[2]; Dose 6.1035 nM,-0.1353 and 0.0688 and 0.3113
same,"Fraction bound, average",[2]; Dose 12.207 nM,-0.0324
same,Fraction bound,[2]; Dose 12.207 nM,-0.1134 and -0.0549 and 0.0712
same,"Fraction bound, average",[2]; Dose 24.4141 nM,0.1754
same,Fraction bound,[2]; Dose 24.4141 nM,0.2387 and 0.0706 and 0.2171
same,"Fraction bound, average",[2]; Dose 48.8281 nM,0.0946
same,Fraction bound,[2]; Dose 48.8281 nM,0.0297 and 0.0849 and 0.1693
same,"Fraction bound, average",[2]; Dose 97.6563 nM,-0.0450
same,Fraction bound,[2]; Dose 97.6563 nM,-0.0271 and 0.1069 and -0.2149
same,"Fraction bound, average",[2]; Dose 195.312 nM,0.0503
same,Fraction bound,[2]; Dose 195.312 nM,0.0657 and 0.2487 and -0.1634
same,"Fraction bound, average",[2]; Dose 390.625 nM,-0.0697
same,Fraction bound,[2]; Dose 390.625 nM,0.2249 and -0.2797 and -0.1544
same,"Fraction bound, average",[2]; Dose 781.25 nM,0.0626
same,Fraction bound,[2]; Dose 781.25 nM,0.0905 and 0.1699 and -0.0724
same,"Fraction bound, average",[2]; Dose 1562.5 nM,0.4132
same,Fraction bound,[2]; Dose 1562.5 nM,0.3970 and 0.3491 and 0.4935
same,"Fraction bound, average",[2]; Dose 3125 nM,0.2921
same,Fraction bound,[2]; Dose 3125 nM,0.2701 and 0.2589 and 0.3472
same,"Fraction bound, average",[2]; Dose 6250 nM,0.4932
same,Fraction bound,[2]; Dose 6250 nM,0.1312 and 0.6482 and 0.7002
same,"Fraction bound, average",[2]; Dose 12500 nM,0.6254
same,Fraction bound,[2]; Dose 12500 nM,0.5193 and 0.6344 and 0.7226
same,"Fraction bound, average",[2]; Dose 25000 nM,0.6785
same,Fraction bound,[2]; Dose 25000 nM,0.6923 and 0.6116 and 0.7317
same,"Fraction bound, average",[2]; Dose 50000 nM,0.8304
same,Fraction bound,[2]; Dose 50000 nM,1.1885 and 0.7220 and 0.5806
same,"Fraction bound, average",[2]; Dose 100000 nM,1.0687
same,Fraction bound,[2]; Dose 100000 nM,0.9757 and 1.0430 and 1.1875
